{
  "source": "patent US8324395B2",
  "about": "“Heterocyclic compound and use thereof” (Takeda Pharmaceutical Company Limited, priority 2007, dated 2012)",
  "data": [
    {"biological_target": "T1, BRAF (V600E) kinase (Homo sapiens, UniProt P15056, V600E)", "T1 construct": "Flag (N); made in house; host or cells: SF-21 insect cells, recombinant baculovirus BAC-V600E", "T1 sequence (P15056 457-717 V600E limits assumed)": "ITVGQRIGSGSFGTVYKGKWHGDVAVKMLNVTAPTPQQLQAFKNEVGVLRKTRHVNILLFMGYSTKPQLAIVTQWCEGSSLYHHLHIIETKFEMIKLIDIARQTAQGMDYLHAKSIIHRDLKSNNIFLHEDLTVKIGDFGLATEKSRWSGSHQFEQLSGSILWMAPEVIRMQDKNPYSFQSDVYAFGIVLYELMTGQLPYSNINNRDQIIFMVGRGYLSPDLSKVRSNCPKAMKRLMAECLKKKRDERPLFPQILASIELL", "assay": "Determination of BRAF (V600E) kinase inhibitory activity", "assay_type": "biochemical", "details": "1.0 μM test compound; BRAF (V600E) enzyme, GST-MEK1 (K96R) substrate, [γ-32P]ATP; read-out: Inhibitory rate (%) at 1.0 μM", "protocol": "Human BRAF gene was cloned by PCR using human Testis cDNA library (Clontech) as a template. The primer used for PCR was prepared from base sequence (Genbank Accession No.: NM_004333) information of BRAF gene by adding a base sequence encoding flag peptide and a recognition sequence of the restriction enzyme to area encoding the BRAF kinase domain region, so that the protein contains an N-terminal. Flag. The primer base sequence is shown below.\nThe PCR reaction was conducted using Pyrobest (Takara Shuzo Co., Ltd). The obtained PCR product was electrophoresed on agarose gel (1%), the DNA fragment amplified by PCR was recovered from the gel, and then digested with restriction enzymes EcoRI and SalI. The DNA treated with the restriction enzymes was electrophoresed on agarose gel (1%), and the obtained DNA fragment was recovered. The recovered DNA fragment was ligated to plasmid pFASTBAC1 (Invitrogen) digested with restriction enzymes EcoRI and SalI to give expression plasmid pFB-BRAF, and the base sequence of the insert fragment was confirmed. In addition, mutation was introduced into V600E using a Quick change Site Directed Mutagenesis kit (Stratagene). The base sequences of the primers used are shown in the following.\nThe obtained plasmid was sequenced to confirm the introduction of mutation into V600E. The DNA was digested with restriction enzymes EcoRI and SalI, DNA treated with the restriction enzymes was electrophoresed on agarose gel (1%), and the obtained DNA fragment was recovered. The recovered DNA fragment was ligated to plasmid pFASTBAC1 (Invitrogen) digested with restriction enzymes EcoRI and SalI to give expression plasmid pFB-V600E.\nUsing BAC-TO-BAC Baculovirus Expression System (Invitrogen), virus stock BAC-V600E of recombinant baculovirus was prepared.\nSF-21 cells were sown at 1×10^6 cells/mL to Sf-900II SFM medium (1 L, Invitrogen) containing 10% fetal bovine serum (Trace), 50 mg/L Gentamicin (Invitrogen) and 0.1% Pluronic F-68 (Invitrogen), and shaking culture was performed using a 2 L volume Erlenmeyer flask at 27° C., 100 rpm. After culturing for 24 hr, recombinant baculovirus BAC-V600E (13.4 mL) was added to the mixture, and the mixture was further cultured for 3 days. The culture medium was centrifuged at 2,000 rpm for 5 min to give virus-infected cells. The infected cells were washed with a phosphate buffered saline (Invitrogen), centrifuged under the same conditions, and the cells were preserved at −80° C. The cryopreserved cells were thawed in ice, suspended in buffer A (50 mM Tris buffer (30 mL, pH 7.4) containing 20% glycerol, 0.15 M NaCl) supplemented with Complete Protease Inhibitor (Boehringer), and ruptured 3 times with a Polytron homogenizer (Kinematica) at 20,000 rpm for 30 sec. The ruptured medium was clarified by centrifugation at 40,000 rpm for 30 min and filtered with a 0.45 μm filter. The filtrate was passed through a column packed with Anti-FLAG M2 Affinity Gel (4 mL, Sigma) at a flow rate of about 0.5 mL/min. The column was washed with buffer A, and eluted with buffer A containing 100 μg/mL of FLAG peptide. The buffer of this eluate was exchanged using NAP25 column (Amersham Bioscience) equilibrated with buffer A and the fractions were cryopreserved at −80° C.\nA test compound (2.5 μL) dissolved in dimethyl sulfoxide (DMSO) was added to 37.5 μL of a reaction mixture (25 mM HEPES (pH 7.5), 10 mM magnesium acetate, 1 mM dithiothreitol) containing BRAF (V600E) enzyme (30 ng) and recombinant type protein GST-MEK1 (K96R) 250 ng, and the mixture was incubated at room temperature for 10 min. ATP solution (10 μL, 2.5 μM ATP, 0.1 μCi [γ-^32P]ATP) was added to the obtained mixture, and the mixture was reacted at room temperature for 20 min. The reaction was quenched by adding 50 μL of ice-cooled. 20% trichloroacetic acid (Wako Pure Chemical Industries, Ltd.) to the reaction mixture. […]", "units": {"inhibition at 1 µM": "%"}, "values": [
      {"compound": "Cc1ccc(Oc2ccc3nc(NC(=O)CO)sc3c2)cc1NC(=O)c1cccc(C2(C#N)CC2)c1", "note": "[Example A6, 3-(1-cyanocyclopropyl)-N-(5-{[2-(glycoloylamino)-1,3-benzothiazol-6-yl]oxy}-2-methylphenyl)benzamide]", "inhibition at 1 µM": 99},
      {"compound": "O=C(Nc1ccc(C(F)(F)F)cc1)c1cccc(Oc2ccc3nc(NC(=O)C4CC4)sc3c2)c1", "note": "[Example A25, 3-({2-[(cyclopropylcarbonyl)amino]-1,3-benzothiazol-6-yl}oxy)-N-[4-(trifluoromethyl)phenyl]benzamide]", "inhibition at 1 µM": 100},
      {"compound": "O=C(Nc1cccc(C(F)(F)F)c1)c1cccc(Oc2ccc3nc(NC(=O)C4CC4)sc3c2)c1", "note": "[Example A29, 3-({2-[(cyclopropylcarbonyl)amino]-1,3-benzothiazol-6-yl}oxy)-N-[3-(trifluoromethyl)phenyl]benzamide]", "inhibition at 1 µM": 100},
      {"compound": "N#CC1(c2cccc(C(=O)Nc3cccc(Oc4ccc5nc(NC(=O)c6cocn6)sc5c4)c3)c2)CC1", "note": "[Example A15, N-[6-(3-{[3-(1-cyanocyclopropyl)benzoyl]amino}phenoxy)-1,3-benzothiazol-2-yl]-1,3-oxazole-4-carboxamide]", "inhibition at 1 µM": 100},
      {"compound": "O=C(Nc1cccc(Oc2ccc3nc(NC(=O)C4CC4)oc3c2)c1)c1cccc(C(F)(F)F)c1", "note": "[Example B1, N-[3-({2-[(cyclopropylcarbonyl)amino]-1,3-benzooxazol-6-yl}oxy)phenyl]-3-(trifluoromethyl)benzamide]", "inhibition at 1 µM": 100},
      {"compound": "N#CC1(c2cccc(C(=O)Nc3cccc(Oc4ccc5nc(NC(=O)C6CC6)sc5c4)c3)c2)CC1", "note": "[Example A1, 3-(1-cyanocyclopropyl)-N-[3-({2-[(cyclopropylcarbonyl)amino]-1,3-benzothiazol-6-yl}oxy)phenyl]benzamide]", "inhibition at 1 µM": 98},
      {"compound": "COc1ccc(NC(=O)c2cccc(C(C)(C)C#N)c2)cc1Oc1ccc2nc(NC(=O)C3CC3)sc2c1", "note": "[Example A21, 3-(1-cyano-1-methylethyl)-N-[3-({2-[(cyclopropylcarbonyl)amino]-1,3-benzothiazol-6-yl}oxy)-4-methoxyphenyl]benzamide]", "inhibition at 1 µM": 98},
      {"compound": "O=C(Nc1cccc(Oc2ccc3nc(NC(=O)C4CC4)[nH]c3c2)c1)c1cccc(C(F)(F)F)c1", "note": "[Example C1, N-[3-({2-[(cyclopropylcarbonyl)amino]-1H-benzimidazol-6-yl}oxy)phenyl]-3-(trifluoromethyl)benzamide]", "inhibition at 1 µM": 99}
    ]},
    {"tested_on": "Colon Cancer Cell HT-29 Intracellular MEK Phosphorylation", "assay": "Colon cancer cell HT-29 intracellular MEK phosphorylation inhibitory action in vitro", "assay_type": "cell-based", "details": "Homo sapiens; HT-29 cells, 2 hr treatment; phosphorylated MEK1/2 (Ser217/221) by Western blot", "protocol": "A cell suspension (500 μL) of human colon cancer cell HT-29 was plated in a 48-well plate (100,000 cells/well), and the cells were cultured overnight at 37° C. in the presence of 5% CO2, treated with a test compound (250 μL/well) diluted in 3-fold dilution series and cultured for two more hours. After 2 hr, the culture medium containing the test compound was removed, and the cells were lysed with SDS sample buffer (100 μL/well) and heated at 95° C. for 5 min. Thereafter, the cells were applied to SDS-PAGE, and the protein was transferred onto Sequi-Blot™ PVDF Membrane (Bio-Rad) by the Western blot method. The cells were blocked with a block-Ace solution (Snow Brand Milk Products Co., Ltd) dissolved in phosphate buffer to 5% W/V, and reacted overnight with anti-phosphorylated MEK1/2 (Ser217/221) (Cell signaling #9121) diluted 1000-fold with phosphate buffer containing 0.4% block-Ace. The membrane was washed with phosphate buffer containing 0.1% Tween 20 (Wako Pure Chemical Industries, Ltd.), and reacted at room temperature for 1 hr with HRP labeled […] (Cell signaling #7074) diluted 1000-fold with phosphate buffer containing 0.4% block-Ace. The membrane was washed in the same manner as above, chemical luminescence of a phosphorylated MEK1/2 protein labeled with the antibody, which was caused by ECL-plus Detection Reagent (Amersham bioscience), was detected by Luminescent Image Analyzer LAS-1000 (FUJIFILM Corporation). Taking the luminescence of the control group free of the test compound as 100%, the concentration (IC50 value) of the compound necessary for inhibiting the residual luminescence to 50% of the control group was calculated.", "units": {"IC50": "nM"}, "values": [
      {"compound": "CN1CCN(CC(=O)Nc2nc3ccc(Oc4cccc(NC(=O)c5cccc(C6(C#N)CC6)c5)c4)cc3s2)CC1", "note": "[Example A16, 3-(1-cyanocyclopropyl)-N-{3-[(2-{[(4-methylpiperazin-1-yl)acetyl]amino}-1,3-benzothiazol-6-yl)oxy]phenyl}benzamide]", "IC50": "< 500"},
      {"compound": "CC(C)(C#N)c1cccc(C(=O)Nc2cccc(Oc3ccc4nc(NC(=O)CO)sc4c3)c2)c1", "note": "[Example A14, 3-(1-cyano-1-methylethyl)-N-(3-{[2-(glycoloylamino)-1,3-benzothiazol-6-yl]oxy}phenyl)benzamide]", "IC50": "< 500"},
      {"compound": "Cc1ccc(Oc2ccc3nc(NC(=O)C4CC4)sc3c2)cc1NC(=O)c1cccc(C(C)(C)C#N)c1", "note": "[Example A7, 3-(1-cyano-1-methylethyl)-N-[5-({2-[(cyclopropylcarbonyl)amino]-1,3-benzothiazol-6-yl}oxy)-2-methylphenyl]benzamide]", "IC50": "< 500"},
      {"compound": "Cc1ccc(Oc2ccc3nc(NC(=O)CO)sc3c2)cc1NC(=O)c1cccc(C(C)(C)C#N)c1", "note": "[Example A10, 3-(1-cyano-1-methylethyl)-N-(5-{[2-(glycoloylamino)-1,3-benzothiazol-6-yl]oxy}-2-methylphenyl)benzamide]", "IC50": "< 500"},
      {"compound": "COc1ccc(NC(=O)c2cccc(C(C)(C)C#N)c2)cc1Oc1ccc2nc(NC(=O)C3CC3)sc2c1", "note": "[Example A21, 3-(1-cyano-1-methylethyl)-N-[3-({2-[(cyclopropylcarbonyl)amino]-1,3-benzothiazol-6-yl}oxy)-4-methoxyphenyl]benzamide]", "IC50": "< 500"},
      {"compound": "O=C(CO)Nc1nc2ccc(Oc3cccc(C(=O)Nc4ccc(C(F)(F)F)cc4)c3)cc2s1", "note": "[Example A26, 3-{[2-(glycoloylamino)-1,3-benzothiazol-6-yl]oxy}-N-[4-(trifluoromethyl)phenyl]benzamide]", "IC50": "< 500"},
      {"compound": "CC(C)(C#N)c1cccc(C(=O)Nc2cccc(Oc3ccc4nc(NC(=O)C5CC5)oc4c3)c2)c1", "note": "[Example B3, 3-(1-cyano-1-methylethyl)-N-[3-({2-[(cyclopropylcarbonyl)amino]-1,3-benzooxazol-6-yl}oxy)phenyl]benzamide]", "IC50": "< 500"}
    ]},
    {"tested_on": "human colon cancer cell HT-29", "assay": "Colon cancer cell HT-29 growth suppressive action in vitro", "assay_type": "cell-based", "details": "72 h, HT-29 cells, 3 days culture, SRB staining of cell protein", "protocol": "A cell suspension (100 μL, 3,000 cells/well) of human colon cancer cell HT-29 (purchased from ATCC) was plated in a 96-well plate, and the cells were cultured at 37° C. in a 5% carbon dioxide gas incubator. The next day, 2-fold serial dilution of each test compound solution (diluted from maximum concentration 20 μM) (100 μL) was added, and the cells were cultured for 3 days. The culture medium containing the test compound was removed, and the cells were washed with phosphate buffer (PBS). A 50% trichloroacetic acid solution was added to the final concentration of 10% (v/v), and the mixture was stood overnight at 4° C., whereby the cells were fixed to the plate. Then, a dye SRB 0.4% (w/v) solution (dissolved in 1% acetic acid) was added at 50 μl/well, whereby the cell protein was fixed and stained (Skehan et al., Journal Of National Cancer Institute, vol. 82, pp. 1107-1112, 1990). The cells were washed 3 times with 1% acetic acid solution (200 μL/well), and 100 μL of an extract (10 mM Tris buffer) was added to extract the dye. The absorbance at an absorption wavelength […] was measured, and cell amount was measured as a protein amount. Taking the protein amount of the control group free of the test compound solution as 100%, the proportion of the residual protein amount of each treatment group was determined and the concentration of the compound necessary for suppressing the residual cell amount to 50% of the control (IC50 value) was calculated.", "units": {"IC50": "nM"}, "values": [
      {"compound": "CC(=O)Nc1nc2ccc(Oc3ccc(C)c(NC(=O)c4cccc(C(C)(C)C#N)c4)c3)cc2s1", "note": "[Example A49, N-(5-{[2-(acetylamino)-1,3-benzothiazol-6-yl]oxy}-2-methylphenyl)-3-(1-cyano-1-methylethyl)benzamide]", "IC50": "< 500"},
      {"compound": "CC(=O)Nc1nc2ccc(Oc3cc(NC(=O)c4cccc(C(C)(C)C#N)c4Cl)ccc3F)cc2s1", "note": "[Example A47, N-(3-{[2-(acetylamino)-1,3-benzothiazol-6-yl]oxy}-4-fluorophenyl)-2-chloro-3-(1-cyano-1-methylethyl)benzamide]", "IC50": "< 500"},
      {"compound": "CC(=O)Nc1nc2ccc(Oc3cccc(NC(=O)c4cccc(C(C)(C)C#N)c4Cl)c3)cc2s1", "note": "[Example A41, N-(3-{[2-(acetylamino)-1,3-benzothiazol-6-yl]oxy}phenyl)-2-chloro-3-(1-cyano-1-methylethyl)benzamide]", "IC50": "< 500"}
    ]}
  ]
}
